Test results as given in ChEMBL document CHEMBL1149645, “Malondialdehyde scavenging and aldose-derived Schiff bases' transglycation properties of synthetic histidyl-hydrazide carnosine analogs” (Bioorg Med Chem, 2007).
Active and inactive are the calls of the source. The calls are words filed in the database; no cut-off is given here. Residues, ends and D or L forms follow the SMILES beside them. *: point of attachment. NHNH2 = NN*

Experiment: Malondialdehyde scavenging activity in iron/ascorbate-induced oxidation in PC liposomes at 10 mM by TBARS test
Assay type: functional

SMILES | Activity
NNC(=O)[C@H](Cc1c[nH]cn1)NC(=O)[C@@H](N)Cc1ccccc1 (H-Phe-His-NHNH2) | Active
NCC(=O)NN | Active
NNC(=O)[C@H](Cc1c[nH]cn1)NC(=O)OCc1ccccc1 | Active
NNC(=O)CNC(=O)OCc1ccccc1 | Active
Cc1c(C)c2c(c(C)c1OC(=O)CCC(=O)N[C@@H](Cc1c[nH]cn1)C(=O)NN)CCC(C)(CCCC(C)CCCC(C)CCCC(C)C)O2 (some centres undefined) | Active
CC(C)C[C@H](N)C(=O)N[C@@H](Cc1c[nH]cn1)C(=O)NN (H-Leu-His-NHNH2) | Active
CC(C)CCCC(C)[C@H]1CCC2C3CC=C4C[C@@H](OC(=O)N[C@@H](Cc5c[nH]cn5)C(=O)NN)CC[C@]4(C)C3CC[C@@]21C (some centres undefined) | Active
NNC(=O)[C@@H](N)Cc1c[nH]cn1 | Active
NCCC(=O)N[C@@H](Cc1c[nH]cn1)C(=O)O | Active
